Experimental data as given in patent US6774220B1, “Compounds having lectinic properties and their biological applications” (Association pour le Développement de la Biothérapie …, priority 1995, dated 2004).

Legend:
[1] = biological target: oligopeptide 81-95 (SEQ ID NO: 6) (Homo sapiens, UniProt P08729); assay: Antibody titre against oligopeptide antigen 81-95; type: binding
Description: (§1) By operating according to standard techniques, the formation of antibodies against the SEQ ID NO: 5 peptides or SEQ ID NO:6 is induced. The specific characters of these antibodies is set out in Table 7.

[2] = biological target: oligopeptide 41-55 (SEQ ID NO: 5) (Homo sapiens, UniProt P08729); assay: Antibody titre against oligopeptide antigen 41-55; type: binding
Description: as §1

[3] = test system: Ost. Sarc. ESS (SCLs excreted by the osteogenic sarcoma ESS); assay: Antibody titre against SCL excreted by osteogenic sarcoma ESS; type: binding
Description: as §1

murine sarcolectin = assay: Action of simple sugars on the agglutination of cells by sarcolectin; type: cell-based, Swiss mice; settings: in the presence of 2 agglutinating units of murine sarcolectin; H9 cells
Experimental: A wide variety of cells originating either from rodents or from primates was tested. Agglutination is obtained by suspending the cells in an MEM medium in the absence of serum. The test may be carried out in two ways, either in the presence of a sarcolectin dilution range in a base 2 geometric progression, by identifying the concentration at which 50% of the cells are agglutinated, or by identifying the affinity of the various sugars for the cell receptors.
In the example shown, murine sarcolectin originating from the ascitic fluid of Swiss mice grafted with Crocker TG180 sarcoma contains 32 units agglutinating the H9 cells which originate from a T lymphoma, fixed by 10% formaldehyde.
The table below illustrates the affinity of the receptors for the various sugars in the presence of 2 agglutinating units.

TG-180 tumour cells = assay: Antitumour action on grafted TG-180 ascitic tumour
Experimental: In order to test the antitumour capacity of SCL inhibiting sugars, TG-180 tumour cells originating from a tumour resistant to chemical metabolic inhibitors was grafted. In a concentration of 3×10^6 cells injected i.p. into 20 gr Swiss mice, an ascitic tumour is obtained which is detectable in 10 days and kills practically 100% of the animals in 21-25 days.
In parallel series, the various groups of animals were treated 3 days after inoculation, either with a specific sugar (glucosamine, lactose, galacturonate, N.A.N.A., neuramine-lactose) in a 5 to 10% solution, the sugar concentration being 100 mM, or with the same treatment in association with an injection of immuno-stimulant (extract of corynebacterium parvum, Merieux, France), in a dose of 200 g/mouse, or interferon, or both.
4 groups of mice per experiment were used.
They are assessed by the percentage of tumours that appeared on the 10th day, the mean survival time of the animals (MST) in. days, and the final survival (as a percentage).

T (lympho) cells = assay: Stimulation over 24 hours of the synthesis of DNA in T (lympho) cells; type: cell-based
Experimental: XI Stimulation over 24 hours of the synthesis of DNA in T (lympho) cells

[4] = test system: encephalomyocarditis virus (EMC); assay: Protection of IFN against the encephalomyocarditis virus in Swiss mice, with SCL inhibiting sugars; type: in vivo; settings: EMC virus i.p.
Experimental: The model used is the encephalomyocarditis virus (EMC) which kills mice in practically all cases after rather varying but relatively short incubation periods.
Male mice (average weight: […], aged 8 to 10 weeks) were injected i.p. with sodium galacturonate, glucosamine and N-acetylneuraminic acid (5 to 10% solutions containing 100 mM sugar). 24 hours afterwards, one hundred lethal doses (50%) of EMC virus are injected by the same route. After one hour, murine interferon is injected (in a dose of 20,000 units in 0.5 ml). Table 3 gives the number of animals surviving out of the total tested, the percentage and statistical significance.

[5] = IL2 (100 u) +SCL + inhibitor (NANA 0.75 mmol.; oligo 41-55 3 μγ/ml)
[6] = single agent (+MEM, or IFN in reference group)

Q: 41-55 (GLGASRPRVAVRSAY) was tested. Which “antibody titre, oligopeptide 81-95 as antigen” value [1] did it give?
A: <200

Q: What about the “antibody titre, oligopeptide 41-55 as antigen” value [2] of the same molecule?
A: >12 600

Q: And the “antibody titre, Ost. Sarc. ESS as antigen” value [3]?
A: >12 800

Q: With `OC[C@H]1O[C@@H](O[C@H]2[C@H](O)[C@@H](O)[C@@H](O)O[C@@H]2CO)[C@H](O)[C@@H](O)[C@H]1O` [α lactose] as the molecule, how does the affinity (murine sarcolectin) read?
A: 0.125 mM

Q: For `OC[C@H]1OC(O)[C@H](O)[C@@H](O)[C@H]1O` (stereo partly drawn) [D galactose], which affinity (murine sarcolectin) is on record?
A: 0.28 mM

Q: How did the “antibody titre, oligopeptide 81-95 as antigen” value [1] turn out when 81-95 (DPFSQRVRQEESEQI) was run?
A: >12 800

Q: And the “antibody titre, oligopeptide 41-55 as antigen” value [2]?
A: <200

Q: With `OC[C@H]1O[C@@H](O[C@H]2[C@H](O)[C@@H](O)[C@H](O)O[C@@H]2CO)[C@H](O)[C@@H](O)[C@H]1O` [β lactose] as the molecule, how does the affinity (murine sarcolectin) read?
A: 0.25 mM

Q: Which affinity (murine sarcolectin) does the source give for `CC(=O)N[C@H]1[C@H]([C@H](O)[C@H](O)CO)OC(O)(C(=O)O)C[C@@H]1O` (stereo partly drawn) [N.A.N.A, N-acetylneuraminic acid] here?
A: 0.0075 mM

Q: What about the “Final survival (%)” value (TG-180 tumour cells; +CP) of the same molecule?
A: (53) %

Q: And the “Final survival, Number” value (TG-180 tumour cells; +CP)?
A: 8

Q: And the “MST (mean survival time)” value (TG-180 tumour cells; +CP)?
A: 69 ± 12 days

Q: What about the “Tumours on 10th day (%)” value (TG-180 tumour cells; +CP) of the same molecule?
A: 40%

Q: And the “Tumours on 10th day, number” value (TG-180 tumour cells; +CP)?
A: 6

Q: What about the “Final survival (%)” value (TG-180 tumour cells; +CP +IFN) of the same molecule?
A: (36) %

Q: And the “Final survival, Number” value (TG-180 tumour cells; +CP +IFN)?
A: 11

Q: What about the “MST (mean survival time)” value (TG-180 tumour cells; +CP +IFN) of the same molecule?
A: 70 ± 12 days

Q: What about the “Tumours on 10th day (%)” value (TG-180 tumour cells; +CP +IFN) of the same molecule?
A: 43%

Q: And the “Tumours on 10th day, number” value (TG-180 tumour cells; +CP +IFN)?
A: 13

Q: And the “Final survival (%)” value (TG-180 tumour cells; +IFN)?
A: (13) %

Q: What about the “Final survival, Number” value (TG-180 tumour cells; +IFN) of the same molecule?
A: 4

Q: What about the “MST (mean survival time)” value (TG-180 tumour cells; +IFN) of the same molecule?
A: 39 ± 12 days

Q: What about the “Tumours on 10th day (%)” value (TG-180 tumour cells; +IFN) of the same molecule?
A: 16%

Q: And the “Tumours on 10th day, number” value (TG-180 tumour cells; +IFN)?
A: 5

Q: What about the “Final survival (%)” value (TG-180 tumour cells; agent alone) of the same molecule?
A: (0) %

Q: What about the “Final survival, Number” value (TG-180 tumour cells; agent alone) of the same molecule?
A: 0

Q: And the “MST (mean survival time)” value (TG-180 tumour cells; agent alone)?
A: 24 ± 6 days

Q: And the “Tumours on 10th day (%)” value (TG-180 tumour cells; agent alone)?
A: 34%

Q: What about the “Tumours on 10th day, number” value (TG-180 tumour cells; agent alone) of the same molecule?
A: 9

Q: And the “effect on the stimulation of DNA synthesis by SCL (in words)” value (T (lympho) cells; 24 hours)?
A: inhibited

Q: And the “synthesis of DNA, EXP. N° 1” value (T (lympho) cells; [5])?
A: 4,657 ± 214.78

Q: What about the “synthesis of DNA, EXP. N° 2” value (T (lympho) cells; [5]) of the same molecule?
A: 27,133 ± 1771

Q: What about the “number of animals surviving out of the total number tested” value [4, 6] of the same molecule?
A: 0/15

Q: And the percentage surviving [4, 6]?
A: 0%

Q: What about the “number of animals surviving out of the total number tested” value ([4]; sugar +IFN (20,000 units)) of the same molecule?
A: 8/15c

Q: And the percentage surviving ([4]; sugar +IFN (20,000 units))?
A: 53%
